Experimental data as given in patent publication US7691374B2, “Method for increasing the efficacy of anti-tumor agents by anti-endoglin antibody” (Health Research, Inc., priority 2002, dated 2010).

Legend:
[1] = tested on: human vessels in the tumors; assay: Count of human vessels in tumors after therapy; assay type: in vivo; details: large tumors at end of experiment of FIG. 7
From the text: (§1) Large tumors of two different sizes (i.e., 350-450 mm^3 and 100-250 mm^3) were obtained from each group of mice for immunostaining and vessel counting. Sections of the tumors were stained with individual mAbs or a mixture of anti-human CD105 and CD31 mAbs and a mixture of anti-mouse CD105 and CD31 mAbs as described above. Human and mouse vessels were counted separately as described above. An average of vessel counts in the two tumors was compared between different groups.
(§2) Human and murine blood vessels were immunostained in the large human tumors from the chimera mice after the mice were sacrificed at the end of experiment shown in FIG. 7. Number of murine vessels in the tumors was 52, 47, 47 and 34 per 100× field for groups A, B, C and D, respectively (see FIG. 7 for the groups). Therefore, SN6j (group B) and CPA (group C) caused only a small decrease (approximately 10%) in the number of murine vessels in the tumors compared with the control (group A). However, combination of SN6j and CPA (group D) caused a larger (i.e., 35%) decrease in the number of murine vessels. […] CPA was not effective for inhibiting human vessels and only weakly suppressive against murine vessels.

[2] = tested on: murine vessels in the tumors; assay: Count of murine vessels in tumors after therapy; assay type: in vivo, mouse; details: large tumors at end of experiment of FIG. 7
From the text: as §1, §2

Colon-26 tumors = assay: Therapy of established Colon-26 tumors in BALB/c mice; assay type: in vivo; details: SN6j 1.8 μg/g i.v., DOX 0.5 μg/g i.p.
Protocol: Antiangiogenic Therapy of Preformed Colon Tumors in Mice. Colon-26 cells (1.25×10^5 cells in 0.1 ml PBS) were inoculated subcutaneously (s.c.) into left flank of BALB/c mice. […] Doxorubicin (0.5 μg/g body weight) was injected intraperitoneally (i.p.) into mice. The administration was repeated three times at 4 days intervals.
Follow-up of Treatment Efficacy.
SN6j (1.8 μg/g body weight) and MOPC195v (1.8 μg/g body weight) were injected i.v. while DOX (0.5 μg/g body weight) was injected i.p. The injectections were repeated three times at 4 days intervals.
Details of the analysis were described by Yokoyama et al. (31), Yu et al. (32) and us (25). […] This improvement persisted until the end of the therapy experiment (Table 3).

SMILES	number of human vessels in the tumors per 100× field [1] [per 100× field]	decrease in the number of murine vessels compared with the control [2]	number of murine vessels in the tumors per 100× field [2] [per 100× field]	Fractional tumor volume (FTV) relative to untreated controls (Colon-26 tumors; Day 4 after tumor cell inoculation, all mice)	Fractional tumor volume (FTV) relative to untreated controls (Colon-26 tumors; Day 4 after tumor cell inoculation, tumors of >4 mm^3 at onset of therapy)	Fractional tumor volume (FTV) relative to untreated controls (Colon-26 tumors; Day 7 after tumor cell inoculation, all mice)	Fractional tumor volume (FTV) relative to untreated controls (Colon-26 tumors; Day 7 after tumor cell inoculation, tumors of >4 mm^3 at onset of therapy)	Fractional tumor volume (FTV) relative to untreated controls (Colon-26 tumors; Day 9 after tumor cell inoculation, all mice)	Fractional tumor volume (FTV) relative to untreated controls (Colon-26 tumors; Day 9 after tumor cell inoculation, tumors of >4 mm^3 at onset of therapy)	Fractional tumor volume (FTV) relative to untreated controls (Colon-26 tumors; Day 11 after tumor cell inoculation, all mice)	Fractional tumor volume (FTV) relative to untreated controls (Colon-26 tumors; Day 11 after tumor cell inoculation, tumors of >4 mm^3 at onset of therapy)	Fractional tumor volume (FTV) relative to untreated controls (Colon-26 tumors; Day 13 after tumor cell inoculation, all mice)	Fractional tumor volume (FTV) relative to untreated controls (Colon-26 tumors; Day 13 after tumor cell inoculation, tumors of >4 mm^3 at onset of therapy)	Fractional tumor volume (FTV) relative to untreated controls (Colon-26 tumors; Day 15 after tumor cell inoculation, all mice)	Fractional tumor volume (FTV) relative to untreated controls (Colon-26 tumors; Day 15 after tumor cell inoculation, tumors of >4 mm^3 at onset of therapy)	Fractional tumor volume (FTV) relative to untreated controls (Colon-26 tumors; Day 17 after tumor cell inoculation, all mice)	Fractional tumor volume (FTV) relative to untreated controls (Colon-26 tumors; Day 17 after tumor cell inoculation, tumors of >4 mm^3 at onset of therapy)	Fractional tumor volume (FTV) relative to untreated controls (Colon-26 tumors; Day 19 after tumor cell inoculation, all mice)	Fractional tumor volume (FTV) relative to untreated controls (Colon-26 tumors; Day 19 after tumor cell inoculation, tumors of >4 mm^3 at onset of therapy)
O=P1(N(CCCl)CCCl)NCCCO1 (stereo not shown) [CPA, cyclophosphamide]	36	approximately 10%	47																
COc1cccc2c1C(=O)c1c(O)c3c(c(O)c1C2=O)C[C@@](O)(C(=O)CO)C[C@@H]3O[C@H]1C[C@H](N)[C@H](O)[C@H](C)O1 [DOX, Doxorubicin]				0.954	0.979	0.741	0.753	0.895	0.954	0.956	1.018	0.860	1.009	0.976	1.159	0.813	0.954	0.873	1.101
